Results published in patent US11046696B2, “Fused pyrimidine compound or salt thereof” (TAIHO PHARMACEUTICAL CO., LTD., priority 2016, dated 2021).

Columns and labels:
[1] = test system: human thyroid cancer cell line TT with RET activating mutation; experiment: In vivo antitumor effect, mice subcutaneously implanted with TT cells; design: species or system BALB/cA Jcl-nu/nu male mice; settings: 100 mg/kg/day group, grouping day (day 0)
Experimental: Human thyroid cancer cell lines (TT) were subcutaneously implanted into the right frank of 6- to 7-week-old BALB/cA Jcl-nu/nu male mice. After about 2 to 3 weeks from the cell implantation, the length (mm) and the width (mm) of tumors found in mouse bodies were measured. […] The day on which the mice were divided into groups was determined to be the “grouping day” (day 0 or 1).
A control group was administered a solvent (0.5% HPMC/0.1N HCl).
To determine the index of the antitumor effect, TV of each drug-administrated group was measured on day 15, and the tumor volume on day 15 relative to the tumor volume on the grouping day (day 0 or 1) (relative tumor volume: RTV) and T/C (%) were calculated from the following equations, and the antitumor effect was evaluated. […] TV (mm^3)=(length×width^2)/2 RTV=(TV on day 15)/(TV on day 0 or day 1) T/C(%)=(the mean RTV of a test compound treatment group)/(the mean RTV of the control group)×100

[2] = mouse, microsomes, 0.5 h, 1 μM

## COCc1ccc(NC(=O)c2c(C#CCN3CCOCC3)n(C3(C)CC3)c3ncnc(N)c23)cc1 [Example 85, 4-amino-N-[4-(methoxymethyl)phenyl]-7-(1-methylcyclopropyl)-6-(3-morpholinoprop-1-yn-1-yl)-7H-pyrrolo[2,3-d]pyrimidine-5-carboxamide]
[1]
  TV (mm^3) Day 0 Mean ± SE: 169.45 ± 16.73 mm^3

## C/C=C/c1ccc(NC(=O)c2c(OCC)n(C3(C)CC3)c3ncnc(N)c23)cc1 [Example 117, (E)-4-amino-6-ethoxy-7-(1-methylcyclopropyl)-N-(4-(prop-1-en-1-yl)phenyl)-7H-pyrrolo[2,3-d]pyrimidine-5-carboxamide]
[2]
  Remaining (%): 53%
